Patent EP4635500A1, “THERAPEUTIC AGENT FOR BACTERIAL INFECTION” (Sumitomo Pharma Co., Ltd., priority 2022, dated 2024)
Values after ≈ are worked out from the molar mass of the structure shown. Like-named read-outs stand apart in the source and are kept apart here.

Legend:
53 CRE and CPE strains = test: MICrange, MIC50, MIC80, MIC90 for 53 bacterial isolates (Example 5, Table 5); assay type: cell-based; conditions: 53 bacterial isolates
P. aeruginosa = test: MIC, broth microdilution, CDC/FDA Antibiotic Resistance Isolate Bank (Example 7, Tables 10, 15); assay type: cell-based; conditions: for MIC: Pseudomonas aeruginosa, read-out: MIC

C[C@H]1[C@H](NC(=O)/C(=N\OC(C)(C)C(=O)O)c2csc(N)n2)C(=O)N1S(=O)(=O)O [Aztreonam, aztreonam]
MIC80 (53 CRE and CPE strains; read-out: MIC80): > 64 µg/mL
MIC90 (53 CRE and CPE strains; read-out: MIC90): > 64 µg/mL
MIC against 26 metallo-carbapenemase-producing strains MIC50 (P. aeruginosa; 26 metallo-carbapenemase-producing P. aeruginosa strains, β-lactamase inhibitor µg/mL in parentheses): 16 µg(mL)
MIC against 96 strains of P. aeruginosa MIC50 (P. aeruginosa; 96 strains of P. aeruginosa, β-lactamase inhibitor µg/mL in parentheses): 16 µg(mL)
MIC (P. aeruginosa; P. aeruginosa KUB No. 579, AR Bank # 447): 4 µg/mL (≈ 9.19 µM)
MIC (P. aeruginosa; P. aeruginosa KUB No. 5551, AR Bank # 54): 32 µg/mL (≈ 73.5 µM)
MIC (P. aeruginosa; P. aeruginosa KUB No. 5561, AR Bank # 64): 16 µg/mL (≈ 36.7 µM)
MIC (P. aeruginosa; P. aeruginosa KUB No. 5592, AR Bank # 95): 16 µg/mL (≈ 36.7 µM)
MIC (P. aeruginosa; P. aeruginosa KUB No. 5597, AR Bank # 100): 32 µg/mL (≈ 73.5 µM)
MIC (P. aeruginosa; P. aeruginosa KUB No. 5600, AR Bank # 103): 16 µg/mL (≈ 36.7 µM)
MIC (P. aeruginosa; P. aeruginosa KUB No. 5602, AR Bank # 105): 32 µg/mL (≈ 73.5 µM)
MIC (P. aeruginosa; P. aeruginosa KUB No. 5605, AR Bank # 108): 8 µg/mL (≈ 18.4 µM)
MIC (P. aeruginosa; P. aeruginosa KUB No. 5607, AR Bank # 110): 4 µg/mL (≈ 9.19 µM)
MIC (P. aeruginosa; P. aeruginosa KUB No. 5608, AR Bank # 111): 2 µg/mL (≈ 4.59 µM)
MIC (P. aeruginosa; P. aeruginosa KUB No. 5663, AR Bank # 230): 4 µg/mL (≈ 9.19 µM)
MIC (P. aeruginosa; P. aeruginosa KUB No. 5665, AR Bank # 232): 4 µg/mL (≈ 9.19 µM)
MIC (P. aeruginosa; P. aeruginosa KUB No. 5666, AR Bank # 23): 16 µg/mL (≈ 36.7 µM)
MIC (P. aeruginosa; P. aeruginosa KUB No. 5667, AR Bank # 234): 2 µg/mL (≈ 4.59 µM)
MIC (P. aeruginosa; P. aeruginosa KUB No. 5669, AR Bank # 236): 2 µg/mL (≈ 4.59 µM)
MIC (P. aeruginosa; P. aeruginosa KUB No. 5670, AR Bank # 237): 4 µg/mL (≈ 9.19 µM)
MIC (P. aeruginosa; P. aeruginosa KUB No. 5671, AR Bank # 238): 4 µg/mL (≈ 9.19 µM)
MIC (P. aeruginosa; P. aeruginosa KUB No. 5672, AR Bank # 239): 32 µg/mL (≈ 73.5 µM)
MIC (P. aeruginosa; P. aeruginosa KUB No. 5673, AR Bank # 240): 32 µg/mL (≈ 73.5 µM)
MIC (P. aeruginosa; P. aeruginosa KUB No. 5674, AR Bank # 241): 32 µg/mL (≈ 73.5 µM)
MIC (P. aeruginosa; P. aeruginosa KUB No. 5675, AR Bank # 242): 4 µg/mL (≈ 9.19 µM)
MIC (P. aeruginosa; P. aeruginosa KUB No. 5676, AR Bank # 243): 2 µg/mL (≈ 4.59 µM)
MIC (P. aeruginosa; P. aeruginosa KUB No. 5677, AR Bank # 244): 32 µg/mL (≈ 73.5 µM)
MIC (P. aeruginosa; P. aeruginosa KUB No. 5678, AR Bank # 245): 16 µg/mL (≈ 36.7 µM)
MIC (P. aeruginosa; P. aeruginosa KUB No. 5680, AR Bank # 247): 4 µg/mL (≈ 9.19 µM)
MIC (P. aeruginosa; P. aeruginosa KUB No. 5681, AR Bank # 248): 4 µg/mL (≈ 9.19 µM)
MIC (P. aeruginosa; P. aeruginosa KUB No. 5682, AR Bank # 249): 32 µg/mL (≈ 73.5 µM)
MIC (P. aeruginosa; P. aeruginosa KUB No. 5684, AR Bank # 251): 32 µg/mL (≈ 73.5 µM)
MIC (P. aeruginosa; P. aeruginosa KUB No. 5685, AR Bank # 252): 32 µg/mL (≈ 73.5 µM)
MIC (P. aeruginosa; P. aeruginosa KUB No. 5686, AR Bank # 253): 16 µg/mL (≈ 36.7 µM)
MIC (P. aeruginosa; P. aeruginosa KUB No. 5687, AR Bank # 254): 4 µg/mL (≈ 9.19 µM)
MIC (P. aeruginosa; P. aeruginosa KUB No. 5688, AR Bank # 255): 8 µg/mL (≈ 18.4 µM)
MIC (P. aeruginosa; P. aeruginosa KUB No. 5689, AR Bank # 256): 4 µg/mL (≈ 9.19 µM)
MIC (P. aeruginosa; P. aeruginosa KUB No. 5690, AR Bank # 257): 8 µg/mL (≈ 18.4 µM)
MIC (P. aeruginosa; P. aeruginosa KUB No. 5691, AR Bank # 258): 4 µg/mL (≈ 9.19 µM)
MIC (P. aeruginosa; P. aeruginosa KUB No. 5692, AR Bank # 259): 4 µg/mL (≈ 9.19 µM)
MIC (P. aeruginosa; P. aeruginosa KUB No. 5693, AR Bank # 260): 8 µg/mL (≈ 18.4 µM)
MIC (P. aeruginosa; P. aeruginosa KUB No. 5694, AR Bank # 261): 4 µg/mL (≈ 9.19 µM)
MIC (P. aeruginosa; P. aeruginosa KUB No. 5695, AR Bank # 262): 16 µg/mL (≈ 36.7 µM)
MIC (P. aeruginosa; P. aeruginosa KUB No. 5696, AR Bank # 263): 2 µg/mL (≈ 4.59 µM)
MIC (P. aeruginosa; P. aeruginosa KUB No. 5697, AR Bank # 264): 2 µg/mL (≈ 4.59 µM)
MIC (P. aeruginosa; P. aeruginosa KUB No. 5698, AR Bank # 265): 8 µg/mL (≈ 18.4 µM)
MIC (P. aeruginosa; P. aeruginosa KUB No. 5699, AR Bank # 266): 4 µg/mL (≈ 9.19 µM)
MIC (P. aeruginosa; P. aeruginosa KUB No. 5700, AR Bank # 267): 4 µg/mL (≈ 9.19 µM)
MIC (P. aeruginosa; P. aeruginosa KUB No. 5701, AR Bank # 268): 32 µg/mL (≈ 73.5 µM)
MIC (P. aeruginosa; P. aeruginosa KUB No. 5702, AR Bank # 269): 16 µg/mL (≈ 36.7 µM)
MIC (P. aeruginosa; P. aeruginosa KUB No. 5703, AR Bank # 270): 2 µg/mL (≈ 4.59 µM)
MIC (P. aeruginosa; P. aeruginosa KUB No. 5704, AR Bank # 271): 16 µg/mL (≈ 36.7 µM)
MIC (P. aeruginosa; P. aeruginosa KUB No. 5705, AR Bank # 272): 4 µg/mL (≈ 9.19 µM)
MIC (P. aeruginosa; P. aeruginosa KUB No. 5749, AR Bank # 353): 8 µg/mL (≈ 18.4 µM)
MIC (P. aeruginosa; P. aeruginosa KUB No. 5750, AR Bank # 354): 16 µg/mL (≈ 36.7 µM)
MIC (P. aeruginosa; P. aeruginosa KUB No. 5754, AR Bank # 358): 32 µg/mL (≈ 73.5 µM)
MIC (P. aeruginosa; P. aeruginosa KUB No. 5755, AR Bank # 359): 32 µg/mL (≈ 73.5 µM)
MIC (P. aeruginosa; P. aeruginosa KUB No. 5756, AR Bank # 360): 16 µg/mL (≈ 36.7 µM)
MIC (P. aeruginosa; P. aeruginosa KUB No. 5785, AR Bank # 439): 4 µg/mL (≈ 9.19 µM)
MIC (P. aeruginosa; P. aeruginosa KUB No. 5786, AR Bank # 440): 32 µg/mL (≈ 73.5 µM)
MIC (P. aeruginosa; P. aeruginosa KUB No. 5789, AR Bank # 444): 8 µg/mL (≈ 18.4 µM)
MIC (P. aeruginosa; P. aeruginosa KUB No. 5800, AR Bank # 457): 32 µg/mL (≈ 73.5 µM)
MIC (P. aeruginosa; P. aeruginosa KUB No. 5805, AR Bank # 863): 16 µg/mL (≈ 36.7 µM)
MIC (P. aeruginosa; P. aeruginosa KUB No. 5813, AR Bank # 508): > 0.064 µg/mL
MIC (P. aeruginosa; P. aeruginosa KUB No. 5814, AR Bank # 509): 0.008 µg/mL (≈ 0.0184 µM)
MIC (P. aeruginosa; P. aeruginosa KUB No. 5815, AR Bank # 510): 0.0005 µg/mL (≈ 0.00115 µM)
MIC (P. aeruginosa; P. aeruginosa KUB No. 5816, AR Bank # 511): 0.004 µg/mL (≈ 0.00919 µM)
MIC (P. aeruginosa; P. aeruginosa KUB No. 5817, AR Bank # 512): 0.032 µg/mL (≈ 0.0735 µM)
MIC (P. aeruginosa; P. aeruginosa KUB No. 5818, AR Bank # 513): 0.032 µg/mL (≈ 0.0735 µM)
MIC (P. aeruginosa; P. aeruginosa KUB No. 5819, AR Bank # 514): 0.004 µg/mL (≈ 0.00919 µM)
MIC (P. aeruginosa; P. aeruginosa KUB No. 5820, AR Bank # 515): 0.032 µg/mL (≈ 0.0735 µM)
MIC (P. aeruginosa; P. aeruginosa KUB No. 5821, AR Bank # 516): > 0.064 µg/mL
MIC (P. aeruginosa; P. aeruginosa KUB No. 5823, AR Bank # 518): > 0.064 µg/mL
MIC (P. aeruginosa; P. aeruginosa KUB No. 5831, AR Bank # 526): 0.004 µg/mL (≈ 0.00919 µM)
MIC (P. aeruginosa; P. aeruginosa KUB No. 5832, AR Bank # 527): 0.032 µg/mL (≈ 0.0735 µM)
MIC (P. aeruginosa; P. aeruginosa KUB No. 5834, AR Bank # 529): 0.008 µg/mL (≈ 0.0184 µM)
